# Reference: patent US10278394B2, “Compounds derived from herbicidal carboxylic acids and tetraalkylammonium or (arylalkyl)trialkylammonium hydroxides” (Dow AgroSciences LLC, priority 2007, dated 2019)
# Test system: grapes (Vitis labrusca L.)
# Assay: Volatility evaluation: injury to grapes from vapor exposure to treated wheat
# Assay type: in vivo
# Details: wheat sprayed at 11200 g ae/ha; 24 hour vapor exposure at 40° C.; evaluated 7 days after exposure
# From the text: Method for evaluating the volatility of herbicide standards and the compounds derived from combining a carboxylic acid herbicide with either a tetraalkylammonium or an (arylalkyl)trialkylammonium hydroxide.
# Four pots of wheat (Triticum aestivum L.) grown in 4 inch square pots were sprayed at 11200 g ae/ha with each of the different forms of 2,4-D. Treatments were applied with a tracksprayer manufactured by Allen Machine Works. The sprayer utilized an 8002E spray nozzle, spray pressure of 262 kPa pressure and speed of 1.5 mph (2.4 km/h) to deliver 187 L/Ha. The nozzle height was 46 cm above the plant canopy. The growth stage of the wheat was 1 to 2 leaf. The wheat plants were allowed to thoroughly dry to ensure that none of the spray solution was present when they were moved into a clean pot flat. A known sensitive species, grapes (Vitis labrusca L.) were placed at the opposite end of the flat. All of the pots were covered with a humidome with small ½ inch (1.27 cm) diameter holes cut into the end where the wheat was placed and a small box fan powered with a battery in the other end to pull air across the treated wheat plants and over the top of grapes. […] A 24 hour exposure period was used after which the sensitive plants were then removed and placed in the greenhouse and evaluated for injury from vapor exposure to the treatments.
smiles,measurement,value
CNC.COc1c(Cl)ccc(Cl)c1C(=O)O [Dicamba DMA],% Injury to grapes from vapor exposure,70%
